According to PubChem BioAssay (NCI):
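A five-concentration, 48-hour dose response in 96-well plates underlies each endpoint, interpolated linearly between surrounding concentrations. At the TGI there is no net growth.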

Tested on: OVCAR-4 ovarian
Experiment: NCI tumour cell line growth inhibition, 48 h

Row | Compound | TGI
1 | O=c1cc(N2CCOCC2)[nH]c(=O)n1-c1cccc(Cl)c1 | > 100 µM
2 | C[C@@H]1OC(=O)C[C@H]2CC(=O)N(CCC3CN(C(=O)c4ccccc4)c4ccccc43)C[C@@H]21 (stereo partly drawn) | > 100 µM

Tested on: SK-OV-3 ovarian
Experiment: NCI tumour cell line growth inhibition, 48 h

Row | Compound | TGI
3 | COc1ccc(-n2cnc3c(N)nc(N)nc32)cc1 | > 100 µM
4 | COc1ccc2c(c1)/C(=C\c1c(-c3ccccc3)nc3n1CCS3)C(=O)N2 | 34.5 µM
5 | COc1ccc(N2C(=O)C3c4[nH]c5cccc(Cl)c5c4C4CCC(C(C)(C)C)CC4C3C2=O)cc1 (stereo not drawn) | > 100 µM
6 | O=c1cc(N2CCOCC2)[nH]c(=O)n1-c1cccc(Cl)c1 | > 100 µM
7 | C[C@@H]1OC(=O)C[C@H]2CC(=O)N(CCC3CN(C(=O)c4ccccc4)c4ccccc43)C[C@@H]21 (stereo partly drawn) | > 100 µM

Tested on: EKVX NSCLC
Experiment: NCI tumour cell line growth inhibition, 48 h

Row | Compound | TGI
8 | COc1ccc(-n2cnc3c(N)nc(N)nc32)cc1 | > 100 µM
9 | COc1ccc2c(c1)/C(=C\c1c(-c3ccccc3)nc3n1CCS3)C(=O)N2 | 48 µM
10 | COc1ccc(N2C(=O)C3c4[nH]c5cccc(Cl)c5c4C4CCC(C(C)(C)C)CC4C3C2=O)cc1 (stereo not drawn) | > 100 µM
11 | O=c1cc(N2CCOCC2)[nH]c(=O)n1-c1cccc(Cl)c1 | > 100 µM
12 | C[C@@H]1OC(=O)C[C@H]2CC(=O)N(CCC3CN(C(=O)c4ccccc4)c4ccccc43)C[C@@H]21 (stereo partly drawn) | > 100 µM

Tested on: HCC-2998 colon
Experiment: NCI tumour cell line growth inhibition, 48 h

Row | Compound | TGI
13 | COc1ccc(-n2cnc3c(N)nc(N)nc32)cc1 | > 100 µM
14 | COc1ccc2c(c1)/C(=C\c1c(-c3ccccc3)nc3n1CCS3)C(=O)N2 | 22.9 µM
15 | COc1ccc(N2C(=O)C3c4[nH]c5cccc(Cl)c5c4C4CCC(C(C)(C)C)CC4C3C2=O)cc1 (stereo not drawn) | > 100 µM
16 | O=c1cc(N2CCOCC2)[nH]c(=O)n1-c1cccc(Cl)c1 | > 100 µM
17 | C[C@@H]1OC(=O)C[C@H]2CC(=O)N(CCC3CN(C(=O)c4ccccc4)c4ccccc43)C[C@@H]21 (stereo partly drawn) | > 100 µM

Tested on: A549 NSCLC
Experiment: NCI tumour cell line growth inhibition, 48 h

Row | Compound | TGI
18 | COc1ccc(-n2cnc3c(N)nc(N)nc32)cc1 | > 100 µM
19 | COc1ccc2c(c1)/C(=C\c1c(-c3ccccc3)nc3n1CCS3)C(=O)N2 | 55.9 µM
20 | COc1ccc(N2C(=O)C3c4[nH]c5cccc(Cl)c5c4C4CCC(C(C)(C)C)CC4C3C2=O)cc1 (stereo not drawn) | > 100 µM
21 | C[C@@H]1OC(=O)C[C@H]2CC(=O)N(CCC3CN(C(=O)c4ccccc4)c4ccccc43)C[C@@H]21 (stereo partly drawn) | > 100 µM

Tested on: OVCAR-3 ovarian
Experiment: NCI tumour cell line growth inhibition, 48 h

Row | Compound | TGI
22 | COc1ccc(-n2cnc3c(N)nc(N)nc32)cc1 | > 100 µM
23 | COc1ccc2c(c1)/C(=C\c1c(-c3ccccc3)nc3n1CCS3)C(=O)N2 | 15.6 µM
24 | COc1ccc(N2C(=O)C3c4[nH]c5cccc(Cl)c5c4C4CCC(C(C)(C)C)CC4C3C2=O)cc1 (stereo not drawn) | > 100 µM
25 | O=c1cc(N2CCOCC2)[nH]c(=O)n1-c1cccc(Cl)c1 | > 100 µM
26 | C[C@@H]1OC(=O)C[C@H]2CC(=O)N(CCC3CN(C(=O)c4ccccc4)c4ccccc43)C[C@@H]21 (stereo partly drawn) | > 100 µM

Tested on: HCT-15 colon
Experiment: NCI tumour cell line growth inhibition, 48 h

Row | Compound | TGI
27 | COc1ccc(-n2cnc3c(N)nc(N)nc32)cc1 | > 100 µM
28 | COc1ccc2c(c1)/C(=C\c1c(-c3ccccc3)nc3n1CCS3)C(=O)N2 | 40.6 µM
29 | COc1ccc(N2C(=O)C3c4[nH]c5cccc(Cl)c5c4C4CCC(C(C)(C)C)CC4C3C2=O)cc1 (stereo not drawn) | > 100 µM
30 | O=c1cc(N2CCOCC2)[nH]c(=O)n1-c1cccc(Cl)c1 | > 100 µM
31 | C[C@@H]1OC(=O)C[C@H]2CC(=O)N(CCC3CN(C(=O)c4ccccc4)c4ccccc43)C[C@@H]21 (stereo partly drawn) | > 100 µM

Tested on: SF-268 CNS
Experiment: NCI tumour cell line growth inhibition, 48 h

Row | Compound | TGI
32 | COc1ccc(-n2cnc3c(N)nc(N)nc32)cc1 | > 100 µM
33 | COc1ccc2c(c1)/C(=C\c1c(-c3ccccc3)nc3n1CCS3)C(=O)N2 | 28.1 µM
34 | COc1ccc(N2C(=O)C3c4[nH]c5cccc(Cl)c5c4C4CCC(C(C)(C)C)CC4C3C2=O)cc1 (stereo not drawn) | > 100 µM
35 | O=c1cc(N2CCOCC2)[nH]c(=O)n1-c1cccc(Cl)c1 | > 100 µM
36 | C[C@@H]1OC(=O)C[C@H]2CC(=O)N(CCC3CN(C(=O)c4ccccc4)c4ccccc43)C[C@@H]21 (stereo partly drawn) | > 100 µM

Tested on: NCI-H226 lung
Experiment: NCI tumour cell line growth inhibition, 48 h

Row | Compound | TGI
37 | COc1ccc(-n2cnc3c(N)nc(N)nc32)cc1 | > 100 µM
38 | COc1ccc(N2C(=O)C3c4[nH]c5cccc(Cl)c5c4C4CCC(C(C)(C)C)CC4C3C2=O)cc1 (stereo not drawn) | > 100 µM
39 | O=c1cc(N2CCOCC2)[nH]c(=O)n1-c1cccc(Cl)c1 | > 100 µM

Tested on: M14 melanoma
Experiment: NCI tumour cell line growth inhibition, 48 h

Row | Compound | TGI
40 | COc1ccc(-n2cnc3c(N)nc(N)nc32)cc1 | > 100 µM
41 | COc1ccc2c(c1)/C(=C\c1c(-c3ccccc3)nc3n1CCS3)C(=O)N2 | 23 µM
42 | COc1ccc(N2C(=O)C3c4[nH]c5cccc(Cl)c5c4C4CCC(C(C)(C)C)CC4C3C2=O)cc1 (stereo not drawn) | > 100 µM
43 | O=c1cc(N2CCOCC2)[nH]c(=O)n1-c1cccc(Cl)c1 | > 100 µM
44 | C[C@@H]1OC(=O)C[C@H]2CC(=O)N(CCC3CN(C(=O)c4ccccc4)c4ccccc43)C[C@@H]21 (stereo partly drawn) | > 100 µM

Tested on: IGROV1 ovarian
Experiment: NCI tumour cell line growth inhibition, 48 h

Row | Compound | TGI
45 | COc1ccc(-n2cnc3c(N)nc(N)nc32)cc1 | > 100 µM
46 | COc1ccc2c(c1)/C(=C\c1c(-c3ccccc3)nc3n1CCS3)C(=O)N2 | 21.4 µM
47 | COc1ccc(N2C(=O)C3c4[nH]c5cccc(Cl)c5c4C4CCC(C(C)(C)C)CC4C3C2=O)cc1 (stereo not drawn) | > 100 µM
48 | O=c1cc(N2CCOCC2)[nH]c(=O)n1-c1cccc(Cl)c1 | > 100 µM
49 | C[C@@H]1OC(=O)C[C@H]2CC(=O)N(CCC3CN(C(=O)c4ccccc4)c4ccccc43)C[C@@H]21 (stereo partly drawn) | > 100 µM

Tested on: NCI-H23 lung
Experiment: NCI tumour cell line growth inhibition, 48 h

Row | Compound | TGI
50 | COc1ccc(-n2cnc3c(N)nc(N)nc32)cc1 | > 100 µM
51 | COc1ccc2c(c1)/C(=C\c1c(-c3ccccc3)nc3n1CCS3)C(=O)N2 | 33.4 µM
52 | COc1ccc(N2C(=O)C3c4[nH]c5cccc(Cl)c5c4C4CCC(C(C)(C)C)CC4C3C2=O)cc1 (stereo not drawn) | > 100 µM
53 | O=c1cc(N2CCOCC2)[nH]c(=O)n1-c1cccc(Cl)c1 | > 100 µM
54 | C[C@@H]1OC(=O)C[C@H]2CC(=O)N(CCC3CN(C(=O)c4ccccc4)c4ccccc43)C[C@@H]21 (stereo partly drawn) | > 100 µM

Tested on: KM12 colon
Experiment: NCI tumour cell line growth inhibition, 48 h

Row | Compound | TGI
55 | COc1ccc(-n2cnc3c(N)nc(N)nc32)cc1 | > 100 µM
56 | COc1ccc2c(c1)/C(=C\c1c(-c3ccccc3)nc3n1CCS3)C(=O)N2 | 19.6 µM
57 | COc1ccc(N2C(=O)C3c4[nH]c5cccc(Cl)c5c4C4CCC(C(C)(C)C)CC4C3C2=O)cc1 (stereo not drawn) | > 100 µM
58 | O=c1cc(N2CCOCC2)[nH]c(=O)n1-c1cccc(Cl)c1 | > 100 µM
59 | C[C@@H]1OC(=O)C[C@H]2CC(=O)N(CCC3CN(C(=O)c4ccccc4)c4ccccc43)C[C@@H]21 (stereo partly drawn) | > 100 µM

Tested on: MDA-N
Experiment: NCI tumour cell line growth inhibition, 48 h

Row | Compound | TGI
60 | COc1ccc(-n2cnc3c(N)nc(N)nc32)cc1 | > 100 µM
61 | COc1ccc2c(c1)/C(=C\c1c(-c3ccccc3)nc3n1CCS3)C(=O)N2 | 5.62 µM
62 | COc1ccc(N2C(=O)C3c4[nH]c5cccc(Cl)c5c4C4CCC(C(C)(C)C)CC4C3C2=O)cc1 (stereo not drawn) | > 100 µM
63 | O=c1cc(N2CCOCC2)[nH]c(=O)n1-c1cccc(Cl)c1 | > 100 µM
64 | C[C@@H]1OC(=O)C[C@H]2CC(=O)N(CCC3CN(C(=O)c4ccccc4)c4ccccc43)C[C@@H]21 (stereo partly drawn) | > 100 µM

Tested on: NCI-H522 lung
Experiment: NCI tumour cell line growth inhibition, 48 h

Row | Compound | TGI
65 | COc1ccc(-n2cnc3c(N)nc(N)nc32)cc1 | > 100 µM
66 | COc1ccc2c(c1)/C(=C\c1c(-c3ccccc3)nc3n1CCS3)C(=O)N2 | 24.4 µM
67 | COc1ccc(N2C(=O)C3c4[nH]c5cccc(Cl)c5c4C4CCC(C(C)(C)C)CC4C3C2=O)cc1 (stereo not drawn) | > 100 µM
68 | O=c1cc(N2CCOCC2)[nH]c(=O)n1-c1cccc(Cl)c1 | > 100 µM
